Values quoted from earlier work, collected in US20260083720A1 (Vyluma Inc., priority 2022, published 2026).

Assays:
myopia progression [1] = conditions: Yam et al., atropine at 0.01%; dose-dependent between 0.05% and 0.01%
myopia progression [2] = conditions: Hieda et al., atropine group
myopia progression [3] = conditions: Wei et al., atropine-placebo group
myopia progression [4] = conditions: Chan, 0.01% concentration, period of 6 months

In the case of CN1[C@@H]2CC[C@H]1C[C@@H](OC(=O)C(CO)c1ccccc1)C2 (some centres unmarked) [atropine], the “effect of atropine on myopia progression” value (myopia progression [1]) is listed as “only relatively small effects”, the “mean AL changes at 24 mo” value (myopia progression [2]; placebo 0.77) is listed as 0.63 mm and the “Mean SER changes at 24 mo” value (myopia progression [2]; placebo −1.48) is listed as −1.26 D. The “mean myopia progression after 24 months” value (myopia progression [3]) was −1.26 D and the “changes in mean SER and AL” value (myopia progression [4]) was “can be reduced”.
